Measurements taken from patent US10731222B2 (RNA Diagnostics Inc., priority 2013, dated 2020).
pIC50: −log10 of the molar value. Entries after “also recorded” stand apart in the source; their conditions may differ.

Key:
[1] = system: A2780 ovarian cancer cells; experiment: RNA disruption in drug-treated A2780 cells (Agilent Bioanalyzer electropherogram, RDI); format: cell-based, human
Protocol: RNA was isolated from ovarian cancer cell line A2780 cells which had been treated with 10 μM docetaxel in 50% media or 20 μM epirubicin, each in 50% media. Cells were treated with the chemotherapeutic for 24 hours at 37° C. Isolated RNA was separated by microcapillary electrophoresis using the Agilent 2100 Bioanalyzer.
Cells were plated and treated with docetaxel concentrations ranging from 0.001-40 μM for 24 to 72 hours to assess the effect on cell number, RNA content, and integrity (measured using a Bioanalyzer 2100 from Agilent Technologies, Inc.).
A2780 cells treated for up to 72 hours with docetaxel at 0.005 uM and 0.2 uM, were analyzed for the amount of RNA per cell. RNA was isolated and electophoretically separated using an Agilent Bioanalyzer.
RNA was isolated and electrophoretically separated on an Agilent Bioanalyzer. As shown in FIG. 24D bands appeared just below the 28S (e.g. intermediate) and 18S bands (e.g. low banding region) at 0.005 uM and peaked at 0.2 uM.
A time course experiment was conducted in A2780 cells. Cells were treated for up to 72 hours with docetaxel at 0.005 uM and 0.2 uM. RNA was isolated and run on an Agilent Bioanalyzer.
The effect of a caspase inhibitor on RNA integrity changes was next assessed. Cells were treated with or without docetaxel at a concentration of 0.2 uM in the presence or absence of the caspase inhibitor Q-DEVD-OPH (Biovision Laboratories) at a concentration of 10 uM.

parental A2780 cells = experiment: Clonogenic assay, drug-sensitive parental cells; format: cell-based; conditions: Homo sapiens, 50% of colony formation suppressed
Source text: (§1) RDA like clonogenic assays can be used to identify drugs that are cytotoxic (FIG. 24C iv). […] The cell lines have widely differing sensitivity to docetaxel in a clonogenic assay, with IC50 values differing by over three orders of magnitude.

[2] = system: docetaxel-resistant A2780DXL cells; experiment: Clonogenic assay, docetaxel-resistant cells; format: cell-based; conditions: 50% of colony formation suppressed
Source text: (§2) A docetaxel A2780 resistant cell line was made as described in Li et al., Int. J. Mol. Med 2004 14(20): 257-264.
as §1

[3] = system: docetaxel-resistant A2780DXL cells; experiment: RNA disruption in docetaxel-resistant cells; format: cell-based; conditions: docetaxel treatment
Protocol: as §2
A time course experiment was conducted. Sensitive parental and docetaxel resistant A2780 cells were treated with docetaxel for 24 hours. RNA was isolated and run on an Agilent Bioanalyzer.
The a\Ability of RDA to detect potentiators of docetaxel (Dxl) sensitivity. […] Thus, RDA may be used to screen for potentiators of chemotherapy drug cytotoxicity.

[4] = system: CaOV3 ovarian tumour cell line; experiment: Docetaxel-induced RNA disruption, CaOV3; format: cell-based
[5] = system: Jurkat leukemia cell line; experiment: Docetaxel-induced RNA disruption, Jurkat; format: cell-based
[6] = system: A2780 ovarian tumour cell line; experiment: Apoptosis markers in drug-treated cells (Annexin V-FITC, DNA content, PARP cleavage, caspase activity); format: cell-based, human
Protocol: Various cell lines were treated with anti-cancer agents and the effects of these treatments on the cellular RNA banding pattern, Annexin V-FITC binding to cells, cellular DNA content, poly ADP ribose polymerase (PARP) cleavage, and cell proliferation in the absence of drug post-treatment were assessed.

A2780 cells = experiment: Cell counts and Recovery Assay of A2780 cells after docetaxel

With `CC(=O)O[C@@]12CO[C@@H]1C[C@H](O)[C@@]1(C)C(=O)[C@H](O)C3=C(C)[C@@H](OC(=O)[C@H](O)[C@@H](NC(=O)OC(C)(C)C)c4ccccc4)C[C@@](O)([C@@H](OC(=O)c4ccccc4)[C@H]21)C3(C)C` [docetaxel] the “amount of RNA per cell” value ([1]; 0.005 uM and 0.2 uM, up to 72 hours) was “increase in a time-dependent and dose-dependent manner”, the electropherogram pattern ([1]; 10 μM in 50% media, 24 hours, 37° C.) was “an intermediate peak and a peak adjacent to the 18S peak” and the RDI ([1]; 0.2 micromolar, 72 hrs, 0.23 prior to drug) was 3.09. For the same compound, the RNA concentration ([1]; 0.2 micromolar, 72 hrs, 1220 prior to drug) was “about 359 ng/microliter”, the “concentration at which the novel banding peaked” value ([1]; 24 hours) was 0.2 µM and the “ratio of Low C Area/(28S+18S)” value ([1]; after 72 hr, little change at 8, 24 or 48 hr) was “dramatic increase”. For the same compound, the RIN ([1]; concentrations ≥0.005 uM) was “did not change significantly”, the “concentration giving reductions in cell number and RIN and increased RDI” value ([1]; dose and time-dependent) was ≥ 0.1 µM and the “response of cells in culture to the agent” value ([1]; dose- and time-dependent) was “RNA disruption”. For the same compound, the pIC50 (parental A2780 cells) was ~8.96, the pIC50 [2] was ~6.19 and the “RNA disruption / banding below 28S and 18S” value [3] was “no banding is evident; also recorded: did not result in RNA disruption; also recorded: do not show docetaxel-induced RNA disruption”. The “docetaxel-induced RNA disruption” value [4] was “RNA disruption was also observed”, the “docetaxel-induced RNA disruption” value [5] was “RNA disruption was also observed” and the “Annexin V-FITC binding” value [6] was “enhance Annexin V-FITC binding to cells”. For the same compound, the DNA laddering [6] was “no DNA laddering was observed”, the PARP cleavage [6] was “induce the cleavage of poly ADP ribose polymerase (PARP)” and the “cellular DNA content” value [6] was “generate cells containing a sub-G1 level of DNA content”. For the same compound, the cellular caspase activity [6] was “activated cellular caspase activity”, the “membrane integrity (propidium iodide staining)” value ([6]; after drug-treatment) was “lack of propiclium iodide staining” and the “recovery in drug-free media” value (A2780 cells; 5 nM) was “permitted cell recovery, but only when the incubation period was 48 hours or less”. The “recovery in drug-free media” value (A2780 cells; 0.2 uM for up to 72 hours, washed and replated) was “No resumption of cell proliferation” and the “concentrations at which cell numbers remained constant” value (A2780 cells; up to 72 hours) was “greater than or equal to 0.005 uM”.
